Experimental data published in ChEMBL document CHEMBL4257544, “Synthesis and biological evaluation of novel asymmetric naphthalene diimide derivatives as anticancer agents depending on ROS generation” (Medchemcomm, 2018).
Active and inactive are the calls of the source. The rule behind the calls is not given here.

Tests used:
[1] = system: HepG2; assay: Induction of autophagy in human HepG2 cells assessed as increase in LC3-2 level by Western blot analysis; format: functional, cell-based
[2] = system: SMMC-7721; assay: Induction of apoptosis in human SMMC7721 cells assessed as decrease in Bcl2 protein expression at 1 to 3 uM after 24 hrs by Western blot analysis; format: functional, cell-based
[3] = system: SMMC-7721; assay: Potency index, ratio of amonafide IC50 to compound IC50 for cytotoxicity against human SMMC7721 cells; format: functional
[4] = system: HepG2; assay: Induction of autophagy in human HepG2 cells assessed as increase in LC3-2 protein expression treated at 1 hr post antioxidant alpha-tocopherol addition and measured after 24 hrs by Western blot analysis; format: functional, cell-based
[5] = system: HepG2; assay: Induction of apoptosis in human HepG2 cells assessed as increase in p53 protein expression at 1 to 3 uM after 24 hrs by Western blot analysis; format: functional, cell-based
[6] = system: HepG2; assay: Antimigratory activity against human HepG2 cells after 24 hrs by scratch wound healing assay; format: functional, cell-based
[7] = system: SMMC-7721; assay: Induction of apoptosis in human SMMC7721 cells assessed as increase in cleaved PARP1 protein expression treated at 1 hr post antioxidant alpha-tocopherol addition and measured after 24 hrs by Western blot analysis; format: functional, cell-based
[8] = system: HepG2; assay: Antimigratory activity against human HepG2 cells treated at 1 hr post antioxidant alpha-tocopherol addition and measured after 24 hrs by scratch wound healing assay; format: functional, cell-based
[9] = system: HepG2; assay: Cytotoxicity against human HepG2 cells assessed as cytoplasm shrinkage after 24 hrs; format: functional, cell-based
[10] = system: SMMC-7721; assay: Downregulation of beta-catenin protein expression in human SMMC7721 cells at 1 to 3 uM after 24 hrs by Western blot analysis; format: functional, cell-based
[11] = system: HepG2; assay: Cytotoxicity against human HepG2 cells assessed as morphological changes treated at 1 hr post antioxidant alpha-tocopherol addition and measured after 24 hrs; format: functional, cell-based
[12] = system: SMMC-7721; assay: Induction of apoptosis in human SMMC7721 cells assessed as increase in p53 protein expression at 1 to 3 uM after 24 hrs by Western blot analysis; format: functional, cell-based
[13] = system: SMMC-7721; assay: Downregulation of beta-catenin protein expression in human SMMC7721 cells treated at 1 hr post antioxidant alpha-tocopherol addition and measured after 24 hrs by Western blot analysis; format: functional, cell-based
[14] = Cytotoxicity against human QSG7701 cells after 48 hrs by MTT assay; format: cell-based; settings: QSG7701, 48 h
[15] = system: SMMC-7721; assay: Cytotoxicity against human SMMC7721 cells assessed as cell rounding after 24 hrs; format: functional, cell-based
[16] = system: SMMC-7721; assay: Induction of ROS generation in human SMMC7721 cells at 1 to 3 uM after 24 hrs by DCFH-DA staining based HCS analysis; format: functional, cell-based
[17] = system: HepG2; assay: Induction of ROS generation in human HepG2 cells at 1 to 3 uM after 24 hrs by DCFH-DA staining based HCS analysis; format: functional, cell-based
[18] = system: MDA-MB-231; assay: Cytotoxicity against human MDA-MB-231 cells after 48 hrs by MTT assay; format: functional, cell-based; settings: MDA-MB-231, 48 h
[19] = system: HepG2; assay: Downregulation of beta-catenin protein expression in human HepG2 cells treated at 1 hr post antioxidant alpha-tocopherol addition and measured after 24 hrs by Western blot analysis; format: functional, cell-based
[20] = system: SMMC-7721; assay: Induction of apoptosis in human SMMC7721 cells at 3 uM after 48 hrs by Annexin V/propidium iodide staining based flow cytometry relative to control; format: functional
[21] = system: HepG2; assay: Induction of autophagy in human HepG2 cells assessed as increase in BECN1 level at 1 to 3 uM by Western blot analysis; format: functional, cell-based
[22] = system: HCT-116; assay: Cytotoxicity against human HCT116 cells after 48 hrs by MTT assay; format: functional, cell-based; settings: HCT-116, 48 h
[23] = system: HepG2; assay: Induction of autophagy in human HepG2 cells after 24 hrs by MDC staining based HCS analysis; format: functional, cell-based
[24] = system: SMMC-7721; assay: Antimigratory activity against human SMMC7721 cells treated at 1 hr post antioxidant alpha-tocopherol addition and measured after 24 hrs by scratch wound healing assay; format: functional, cell-based
[25] = system: HepG2; assay: Induction of apoptosis in human HepG2 cells assessed as increase in cleaved PARP1 protein expression at 1 to 3 uM after 24 hrs by Western blot analysis; format: functional, cell-based
[26] = system: HepG2; assay: Antimigratory activity against human HepG2 cells at 1 to 3 uM after 24 hrs by crystal violet staining based transwell migration assay; format: functional, cell-based
[27] = system: SMMC-7721; assay: Cytotoxicity against human SMMC7721 cells assessed as reduction in cell viability in presence of autophagy inhibitor 3-MA by MTT assay; format: functional, cell-based

For CCCCN1C(=O)c2ccc3c4c(ccc(c24)C1=O)C(=O)N(CCCN(C)C)C3=O, the Activity [1] was “Dose-dependent effect”, the Activity [2] was “Active” and the “Ratio IC50” value [3] was 5. For the same molecule, the Activity [4] was “inactive”, the Activity [5] was “Active” and the Activity [6] was “Dose-dependent effect”. The Activity [7] was “inactive”, the Activity [8] was “inactive” and the Activity [9] was “Active”. The Activity [10] was “Active”, the Activity [11] was “inactive” and the Activity [12] was “Active”. For the same molecule, the Activity [13] was “inactive”, the IC50 [14] was 7.11 µM and the Activity [15] was “Active”. For the same molecule, the Activity [16] was “Active”, the Activity [17] was “Active” and the IC50 [18] was 5.79 µM. For the same molecule, the Activity [19] was “inactive”, the Activity [20] was 52.1% and the Activity [21] was “Active”. The IC50 [22] was 14.7 µM, the Activity [23] was “Dose-dependent effect” and the Activity [24] was “inactive”. The Activity [25] was “Active”, the Activity [26] was “Active” and the Activity [27] was “inactive”.
